Reference: publication PMC4639830, “Inhibition of DYRK1A and GSK3B induces human β-cell proliferation” (Nature Communications, 2015)
Entries after “also recorded” stand apart in the source; their conditions may differ.

Legend:
[1] = test system: adult rat primary β-cells; assay: Rat β-cell proliferation assay, EdU incorporation, dissociated islets; format: cell-based; details: for primary rat β-cell proliferation, combination of Chiron99021 with TG003: 4 days; for rat β-cell proliferation (EdU incorporation), in words: dispersed rat islets; for β-cell proliferation in combination with GNF4877: sub-EC50 GNF4877, Figs 7a,d (human and rat β-cells)
Method: (§1) Rat or human β-cell proliferation assays were performed using dissociated primary rat or human islets. Islets were treated with the indicated compounds in the presence of EdU for 4 days before fixing and staining. […] For intact islet assays, primary human islets were treated for 7 or 8 days (as indicated in the legend). Rat dissociated islets were cultured in RPMI medium containing 10% FBS and human dissociated islets were cultured in PIM-S media (Prodo laboratories) with 10% human […].

[2] = test system: β-cells from dissociated adult primary human islets; assay: Human β-cell proliferation assay, EdU incorporation, dissociated islets; format: cell-based; details: for human β-cell proliferation (EdU incorporation), in words: dispersed human islets; for effect of co-treatment on human β-cell proliferation induced by GNF4877: GNF4877 2 μM, FK506 12 nM to 1 μM
Method: as §1

rat islet cells = assay: eFluor670 vital dye dilution (cell division); format: cell-based; details: 5 days treatment
Source text: The extent of proliferation of human islet cells was too low to be detected with this method, consistent with the lower level of EdU incorporation induced in human islets.

Gsk3b = Gsk3b (Homo sapiens, UniProt P49841); assay: Gsk3b biochemical kinase assay
Chain of Gsk3b (P49841 whole entry, species assumed): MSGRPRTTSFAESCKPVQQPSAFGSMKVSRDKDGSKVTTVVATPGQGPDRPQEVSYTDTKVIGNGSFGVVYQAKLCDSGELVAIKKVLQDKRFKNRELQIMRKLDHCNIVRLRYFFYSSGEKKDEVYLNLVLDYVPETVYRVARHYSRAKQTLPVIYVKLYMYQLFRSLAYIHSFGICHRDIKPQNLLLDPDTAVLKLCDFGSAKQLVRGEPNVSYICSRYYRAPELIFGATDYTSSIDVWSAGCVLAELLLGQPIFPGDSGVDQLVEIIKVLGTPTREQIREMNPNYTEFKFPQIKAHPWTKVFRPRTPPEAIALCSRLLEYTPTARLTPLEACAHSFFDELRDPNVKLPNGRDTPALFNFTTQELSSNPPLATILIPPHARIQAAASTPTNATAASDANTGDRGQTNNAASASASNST

Dyrk1a = target: T1, Dyrk1a (Homo sapiens, UniProt Q13627); assay: Dyrk1a kinase activity, biochemical assay
T1 construct: purchased Ambit KINOMEscan

[3] = test system: β-catenin nuclear localization in primary rat islets; assay: β-Catenin nuclear translocation; format: cell-based
Method: At the end of the treatment, cells were fixed with 4% paraformaldehyde, blocked and permeabilized, and stained by standard immunofluorescence techniques for β-catenin (Cell signaling, #9562L; dilution 1:500), NFATc1 (Santa Cruz, rabbit polyclonal, SC-7294; dilution 1:200) or NFAT3c (Santa Cruz, SC-8321; dilution 1:200) and nuclear DNA was stained with DAPI (Molecular Probes; dilution 1:1,000). EdU incorporation was measured by click reaction with AlexaFluor-647-azide (Invitrogen). Plates were imaged with confocal microscope and analysed by Metamorph (Molecular Devices).

Compound | rat β-cell proliferation (EdU incorporation), in words [1] | human β-cell proliferation (EdU incorporation), in words [2] | also measured
CCN1/C(=C/C(C)=O)Sc2ccc(OC)cc21 [TG003] | induced β-cell proliferation | induced β-cell proliferation | primary rat β-cell proliferation, combination of Chiron99021 with TG003 [1]: additive induction of primary rat β-cell proliferation
cyclosporin A [CsA] |  |  | effect of co-treatment on human β-cell proliferation induced by GNF4877 [2]: reduced by co-treatment
O=C1Cc2c([nH]c3ccc(Br)cc23)-c2ncccc2N1 [1-Akp] | significantly lower extent than GNF7156 and GNF4877 | without any significant effects on human β-cell proliferation | 
COC(=O)C1=C(C)NC(C)=C([N+](=O)[O-])C1c1ccccc1C(F)(F)F (stereo not drawn) [Bay K8644] |  |  | β-cell proliferation in combination with GNF4877 [1]: showed additive activity with GNF4877
Cc1cnc(-c2cnc(NCCNc3ccc(C#N)cn3)nc2-c2ccc(Cl)cc2Cl)[nH]1 [Chiron99021] | significantly lower extent than GNF7156 and GNF4877 | without any significant effects on human β-cell proliferation | primary rat β-cell proliferation, combination of Chiron99021 with TG003 [1]: additive induction of primary rat β-cell proliferation
Nc1ncnc2c1c(I)cn2[C@@H]1O[C@H](CO)[C@@H](O)[C@H]1O [5-IT] | induced β-cell proliferation | induced β-cell proliferation | 
[Cl-].[Li+] [LiCl] | significantly lower extent than GNF7156 and GNF4877 | without any significant effects on human β-cell proliferation | 
Nc1ncc(-c2ccccc2)nc1C(=O)Nc1ccccc1N1CCC(C(=O)O)CC1 [GNF6324] | completely inactive; also recorded: did not induce EdU incorporation in rat β-cells | completely inactive | eFluor670 staining intensity relative to control (rat islet cells): nor cause a decrease in eFluor670 staining; potency on Gsk3b, in words (Gsk3b): retained similar potency to GNF7156 on Gsk3b; IC50 (Dyrk1a): > 50 µM; β-catenin nuclear translocation [3]: capable of inducing nuclear localization of β-catenin
COc1ccc2c(c1)[nH]c1c(C)nccc12 [harmine] | induced β-cell proliferation | induced β-cell proliferation | 
COc1ccc(Cl)cc1C(=O)NCCc1ccc(S(=O)(=O)NC(=O)NC2CCCCC2)cc1 [glibenclamide] |  |  | β-cell proliferation in combination with GNF4877 [1]: showed additive activity with GNF4877
C=CC[C@@H]1/C=C(\C)C[C@H](C)C[C@H](OC)[C@H]2O[C@@](O)(C(=O)C(=O)N3CCCC[C@H]3C(=O)O[C@H](/C(C)=C/[C@@H]3CC[C@@H](O)[C@H](OC)C3)[C@H](C)[C@@H](O)CC1=O)[C@H](C)C[C@@H]2OC [FK506] |  |  | effect of co-treatment on human β-cell proliferation induced by GNF4877 [2]: reduced by co-treatment
